Results as given in patent US4472433A, “Phenoxyphenyl acetic acids and their medicinal use” (Fujisawa Pharmaceutical Co., Ltd., priority 1978, dated 1984).

Experiments:
erythema = test: UV-induced erythema test (number of rats estimated as effective); assay type: in vivo, male Hartley rats; conditions: oral, ten rats per group, half 1 h before and half just after UV radiation, scored 2 h later
Method: Ten male 5 week old Hartley rats, each weighing about 350 g. were used per group. The backs of each animal were depilated 24 hours before the test. An adhesive tape with 3 small holes of 9 mm. diameter was placed on the depilated skin and then the animal was exposed to ultra-violet radiation from an ultra-violet lamp (500 W, manufactured by Engelhard Hanovia Inc.) at a distance of 13 cm. for 80 seconds. Two hours later, the degree of erythema was estimated on the basis of the following scores:
1.0: erythema with clear border,
0.5: erythema with unclear border,
The drugs were regarded as being effective when the total of 3 points was below 1.5.
Each dosage of the test compound was administered orally in a suspension form in 20 ml. of 0.5% methyl cellosolve aqueous solution. Half of the test sample was administered one hour before the radiation and the remaining half of the test solution was administered just after radiation.

[1] = tested on: contraction induced by arachidonic acid; test: Arachidonic acid-induced contraction of isolated stomach fundus strip; set-up: species or system Sprague-Dawley rats; conditions: rat stomach fundus strip, arachidonic acid 1.0×10^-5 g/ml as spasmogen, compound added 15 minutes before
Method: The stomach was removed from Sprague-Dawley rats, weighing about 180 g., after the animals were fasted overnight. A strip of stomach fundus was suspended under initial tension of 0.6 g. in a 10 ml. organ bath containing Tyrode solution. Arachidonic acid (1.0×10^-5 g/ml.) was employed as the spasmogen. Several doses of the test compound were added to the individual bath fluid 15 minutes before the addition of arachidonic acid. The value of contraction induced by arachidonic acid was measured and plotted dose-activity curve. ED50 value of each test compound was obtained by interpolation from the dose-activity curve.

writhing syndrome = test: Acetic acid-induced writhing syndrome; assay type: in vivo, male ddy strain mice; conditions: oral
Method: Male ddy strain mice, weighing 24.0-32.0 g, were used. Each dose group consisted of 10 animals. Writhing syndrome was produced by an intraperitoneal injection of 20 ml/kg of 0.6% acetic acid. […] The drug were given orally 60 minutes before acetic acid. The frequency of writhing syndrome for 10 minutes in the treated animals was compared with that in the control. Control animals received the vehicle.
The test substances, the compound obtained in the Example 5-(2) was suspended in 0.5% methylcellulose.
ED50 value was calculated according to the Litchfield-Wilcoxon's method with a computer program.

[2] = tested on: Brewer's yeast-induced hyperthermia; test: Brewer's yeast-induced hyperthermia (antipyretic effect); assay type: in vivo, male SD strain rats; conditions: oral; for ED50: Rattus norvegicus
Method: (§1) Male SD strain rats aged 6 weeks, weighing 164-235 g, were divided into 4 groups i.e. A, B, A' and B' of 10 animals each and were treated as shown below:
(§2) Group A saline 0.5% methylcellulose
(§3) Group B 5% Brewer's yeast
(§4) Group A' saline Test substance
(§5) Group B' 5% Brewer's yeast
(§6) The test substance or 0.5%MC were given orally to rats 4 hr after subcutaneous injection of 5% Brewer's yeast or saline. The rectal temperature was measured with a thermister probe inserted about 4.5-5.0 cm into the rectum 4 hr before, and 1 and 2 hr after the injection of test substance.
The antipyretic effect (%) of test substance on the Brewer's yeast-induced hyperthermia at 1 and 2 hr after the injection of test substance was calculated from the mean rectal temperature (rectal temp.) in each group by the following formula: [formula]
(§7) All experiments were performed at an ambient temperature of 22.0°-22.5° C.
(§8) Test substance, the compound obtained in the Example 5-(2) was dissolved in 0.5%MC at a dose of 10 mg/kg and 100 mg/kg, and also suspended in 0.5%MC at a dose of 320 mg/kg, and Brewer's yeast was suspended in saline.
(§9) Statistics: Calculation of ED50 value according to the Litchfield-Wilcoxon's method was performed with a computer program. Statistic analysis of difference between the control and treated groups according to the Student's t-test or Cochran-Cox test was performed with a computer program.

[3] = Rectal temperature in saline-treated rats; assay type: in vivo, male SD strain rats
Method: as §1, §2, §3, §4, §5, §6, §7, §8, §9

In the case of Nc1c(CC(=O)[O-])cccc1Oc1ccccc1F.[Na+] [Example 2 - (2), sodium 2-[2-amino-3-(2-fluorophenoxy)phenyl]acetate], the “Number of rats estimated as effective” value (erythema; 2 mg/kg) is reported as 9 rats, the “Number of rats estimated as effective” value (erythema; 10 mg/kg) is reported as 10 rats and the ED50 [1] is reported as 1.6 µg/mL.

With Nc1c(CC(=O)[O-])cccc1Oc1cccc(Cl)c1.[Na+] [Example 4 - (2), sodium 2-[2-amino-3-(3-chlorophenoxy)phenyl]acetate] the ED50 [1] was 1.7 µg/mL.

For Nc1c(CC(=O)[O-])cccc1Oc1ccccc1Cl.[Na+] [Example 5 - (2), sodium 2-[2-amino-3-(2-chlorophenoxy)phenyl]acetate], the “Number of rats estimated as effective” value (erythema; 2 mg/kg) was 8 rats, the “Number of rats estimated as effective” value (erythema; 10 mg/kg) was 10 rats and the ED50 [1] was 1.3 µg/mL. The ED50 (writhing syndrome; Mus musculus, 60 minutes before acetic acid, writhing 3 to 13 minutes after acetic acid, read-out: ED50 value (inhibition of writhing)) was 19.6 mg/kg, the “effect on the writhing syndrome caused by acetic acid” value (writhing syndrome) was “dose-related inhibiting effects on the writhing syndrome” and the ED50 ([2]; 1 hr after administration) was 37.3 mg/kg. The ED50 ([2]; 2 hr after administration) was 12.8 mg/kg, the “antipyretic effect on the Brewer's yeast-induced hyperthermia” value ([2]; all doses (10, 100, 320 mg/kg), 1 and 2 hr after administration) was “showed the antipyretic effect on the Brewer's yeast-induced hyperthermia” and the rectal temperature change ([3]; 10 mg/kg, 1 hr, slight but significant) was “produced a rise”. The rectal temperature change ([3]; 100 mg/kg, 2 hr) was “significant fall of the rectal temperature”, the rectal temperature change ([3]; 320 mg/kg, 1 hr, slight but significant) was “produced a fall of the rectal temperature” and the rectal temperature change ([3]; 320 mg/kg, 2 hr) was “significant fall of the rectal temperature”.

In the case of Nc1c(CC(=O)[O-])cccc1Oc1cc(Cl)cc(Cl)c1.[Na+] [Example 7 - (2), sodium 2-[2-amino-3-(3,5-dichlorophenoxy)phenyl]acetate], the ED50 [1] is reported as 0.16 µg/mL.

In the case of Cc1ccccc1Oc1cccc(CC(=O)[O-])c1N.[Na+] [Example 10 - (2), sodium 2-[2-amino-3-(o-tolyloxy)phenyl]acetate], the “Number of rats estimated as effective” value (erythema; 2 mg/kg) is reported as 5 rats, the “Number of rats estimated as effective” value (erythema; 10 mg/kg) is reported as 10 rats and the ED50 [1] is reported as 2.5 µg/mL.

Nc1c(CC(=O)[O-])cccc1Oc1c(Cl)cccc1Cl.[Na+] [Example 19, sodium 2-[2-amino-3-(2,6-dichlorophenoxy)phenyl]acetate] gave an ED50 [1] of 2.4 µg/mL.
